From PMC9953335 (2022) come the findings set out here.

Assay [1] deals with cKIT1 (unlabelled) (DNA, G4) GGGAGGGCGCTGGGAGGAGGG
As to the kind of experiment: CD titration. To be noted: K+ (50 mM KCl); 10 mM Tris-HCl, pH 7.4, 25 °C; 1-10 equiv compound.

The test system of assay [2] is hTelo (unlabelled) (DNA, G4) GGGTTAGGGTTAGGGTTAGGG
As to the kind of experiment: CD titration. To be noted: K+ (50 mM KCl); 10 mM Tris-HCl, pH 7.4, 25 °C; 1-10 equiv compound.

As for `CN1[C]N(CCCN2[C]N(C)c3c2c(=O)n(C)c(=O)n3C)c2c1n(C)c(=O)n(C)c2=O.CN1[C]N(CCCN2[C]N(C)c3c2c(=O)n(C)c(=O)n3C)c2c1n(C)c(=O)n(C)c2=O.[Au+].[Au+]`, the binding result in assay [1] and in assay [2] was “yes” in each case.

`CN1[C]N(CCCN2[C]N(C)c3ccccc32)c2ccccc21.CN1[C]N(CCCN2[C]N(C)c3ccccc32)c2ccccc21.[Au+].[Au+]`: the binding entry in assay [1] and in assay [2] was “yes” throughout.
